Patent US12667103B2, “Methods and compositions comprising herbicidally active compounds and thiocyanate compounds for controlling weed growth” (MUSTGROW BIOLOGICS CORP., priority 2020, dated 2026)

Test system: weed plants
Experiment: Field trial of weed control: individual weed plants counted on test plots after herbicide treatment
Assay type: in vivo
Details: for Incidence of weeds (average count of weed plants per test plot): MustGrow SCN 24.3 kg/acre
Experimental: A total of 8 herbicide treatments were run in a field trial as follows:
RT540®, Bayer CropScience contains 540 g/L of glyphosate as the active ingredient. MustGrow SCN consists of pure commercially purchased thiocyanate in powder form. RT540 and MustGrow SCN were diluted with 10 parts of water and applied using a backpack sprayer to each of the test plots located in central Saskatchewan at the rate indicated in Table 2. Each treatment consisted of triplicate experimental plots (4×20 ft). Weed plant growth was monitored by counting individual weed plants present on each of the test plots over a period of 5 weeks from application.

Compound | Incidence of weeds (average count of weed plants per test plot) (week 1) | Incidence of weeds (average count of weed plants per test plot) (week 2) | Incidence of weeds (average count of weed plants per test plot) (week 3) | Incidence of weeds (average count of weed plants per test plot) (week 4) | Incidence of weeds (average count of weed plants per test plot) (week 5) | Effectiveness in limiting the incidence of weeds, in words (under the conditions of this trial, RT540 0.1-1 L/acre)
thiocyanate [MustGrow SCN] | 8 | 15 | 75 | 155 | 174 | 
O=C(O)CNCP(=O)(O)O [glyphosate, N-(phosphomethyl)glycine, reference compound] |  |  |  |  |  | marginally effective
